Tests used:
Assay type in all cases: in vivo
[1] = test system: PAPRH=Papaver rhoeas L. (common poppy); assay: Postemergent herbicidal activity in the greenhouse; conditions: 21-28 DAAA
Description: (§1) Seeds of the desired test plant species were planted in Sun Gro MetroMix® 306 planting mixture, which typically has a pH of 6.0 to 6.8 and an organic matter content of about 30 percent, in plastic pots with a surface area of 103.2 square centimeters (cm^2). When required to ensure good germination and healthy plants, a fungicide treatment and/or other chemical or physical treatment was applied. The plants were grown for 7-36 days (d) in a greenhouse with an approximate 14 hour (h) photoperiod which was maintained at about 18° C. during the day and 17° C. during the night. Nutrients and water were added on a regular basis and supplemental lighting was provided with overhead metal halide 1000-Watt lamps as necessary. The plants were employed for testing when they reached the second or third true leaf stage.
(§2) An aliquot of formulated Compound 5 (100 grams acid equivalent per liter (g ae/L); emusifiable concentrate (EC)), Compound 6 (100 g ae/L; EC) or Compound 7 (100 g ae/L; EC) was placed in a 25 mL glass vial and diluted in a volume of 1.25% (volume per volume (v/v)) aqueous Actirob B esterified rapeseed oil to obtain a stock solution. The concentrated stock solutions were diluted with an aqueous mixture of 1.25% v/v of aqueous Actirob B esterified rapeseed oil to provide the appropriate application rates. Compound requirements are based upon a 12 mL application volume at a rate of 187 liters per hectare (L/ha). Formulated compounds were applied to the plant material with an overhead Mandel track sprayer equipped with 8002E nozzles calibrated to deliver 187 L/ha over an application area of 0.503 square meters (m^2) at a spray height of 18 inches ([…]) above average plant canopy. Control plants were sprayed in the same manner with the solvent blank.
(§3) The treated plants and control plants were placed in a greenhouse as described above and watered by subirrigation to prevent washoff of the test compounds. After 20-22 d, the condition of the test plants as compared with that of the control plants was determined visually and scored on a scale of 0 to 100 percent where 0 corresponds to no injury and 100 corresponds to complete kill. […]
(§4) The values reported are means.

[2] = test system: ANTAR=Anthemis arvensis (field chamomile); assay: Postemergent herbicidal activity in the greenhouse; conditions: 21-28 DAAA
Description: as §1, §2, §3, §4

[3] = test system: MATCH=Matricaria recutita L. (wild chamomile); assay: Postemergent herbicidal activity in the greenhouse; conditions: 21-28 DAAA
Description: as §1, §2, §3, §4

[4] = test system: PAPRH=Papaver rhoeas L. (common poppy); assay: Postemergence field trial, Granon, Spain (Table 5)
Description: (§5) Field trials were established in Spain (Banares and Granon) and Germany (Bielefeld) to evaluate the efficacy of Compound 5, Compound 6, and Compound 7. Trials were designed as randomized complete blocks with three to four replicates. Trials were established in winter wheat with natural weed population with plot sizes of 2-2.5 meters (m) by 6-8 m (width×length). The crops were grown using normal cultural practices for fertilization, seeding, and maintenance to ensure good growth of the crop. All herbicide treatments were applied post-emergence with applications made to the crops at the BBCH 21 to 23 growth stage. Herbicides were applied with backpack or bicycle sprayers using air as a propellant. The sprayers utilized flat fan air-induction spray nozzles calibrated to deliver a uniform spray pattern that provided thorough coverage of the foliage using a 200 L/ha spray volume. All treatments were applied with methylated seed oil (MSO) at 1.25% v/v. Phytotoxicity to the weeds was assessed visually at several intervals after application as percent overall control, compared to an untreated control plot. In general, three to four replicates were assessed for each treatment. All treatment results are an average of three or four replicates. Compound 5, Compound 6, and Compound 7 were applied as emulsifiable concentrate (EC) formulations at 100 g ae/L EC, respectively.

[5] = test system: VERHE=Veronica hederifolia (ivyleaved speedwell); assay: Postemergence field trial, Granon, Spain (Table 5)
Description: as §5

[6] = test system: PAPRH=Papaver rhoeas L. (common poppy); assay: Postemergence field trial, Bielefed, Germany
Description: as §5

[7] = test system: CENCY=Centaurea cyanus (cornflower); assay: Postemergence field trial, Bielefed, Germany
Description: as §5

[8] = test system: STEME=Stellaria media (L.) Vill. (common chickweed); assay: Postemergence field trial, Ellerslie, Alberta, Canada
Description: (§6) Field trials were established in Canada (in Ellerslie, Alberta; Nisku, Alberta and Hanley, Saskatchewan) to evaluate the efficacy of Compound 5, Compound 6, and Compound 7. Trials were designed as randomized complete blocks with four replicates. Trials were established in spring wheat with natural weed population with plot sizes of 2-3 meters (m) by 8-10 m (width×length). The crops were grown using normal cultural practices for fertilization, seeding, and maintenance to ensure good growth of the crop.
(§7) All herbicide treatments were applied post-emergence with applications made to the crops at BBCH (Phenological development stages of a plant) 14 to 22 growth stage. Herbicides were applied with backpack or bicycle sprayers using carbon dioxide (CO2) as a propellant. The sprayers utilized flat fan air-induction spray nozzles calibrated to deliver a uniform spray pattern that provided thorough coverage of the foliage using a 100 L/ha spray volume. All treatments were applied with methylated seed oil (MSO) at 1.25% v/v. Phytotoxicity to the weeds was assessed visually at several intervals after application as percent overall control, compared to an untreated control plot. In general, four replicates were assessed for each treatment. All treatment results are an average of four replicates.
(§8) Compound 5, Compound 6 and Compound 7 were applied as emulsifiable concentrate (EC) formulations at 100 g ae/L EC, respectively.

[9] = test system: POLCO=Polygonum convolvulus L. (wild buckwheat); assay: as above
Description: as §6, §7, §8

[10] = test system: CHEAL=Chenopodium album L. (common lambsquarters); assay: as above
Description: as §6, §7, §8

[11] = test system: PAPRH=Papaver rhoeas L. (common poppy); assay: Postemergence field trial, Granon, Spain (Table 7)
Description: as §5

[12] = test system: SINAR=Sinapis arvensis L. (wild mustard); assay: Postemergence field trial, Granon, Spain (Table 7)
Description: as §5

| Structure (SMILES) | Percent (%) Visual Control PAPRH ([1]; 10 g ae/ha) | Percent (%) Visual Control PAPRH ([1]; 20 g ae/ha) | Percent (%) Visual Control ANTAR ([2]; 10 g ae/ha) | Percent (%) Visual Control ANTAR ([2]; 20 g ae/ha) | Percent (%) Visual Control MATCH ([3]; 10 g ae/ha) | Percent (%) Visual Control MATCH ([3]; 20 g ae/ha) | Percent (%) Visual Control PAPRH 84DAAA ([4]; 5 g ae/ha) | Percent (%) Visual Control PAPRH 84DAAA ([4]; 10 g ae/ha) | Percent (%) Visual Control PAPRH 84DAAA ([4]; 20 g ae/ha) | Percent (%) Visual Control VERHE 34DAAA ([5]; 5 g ae/ha) | Percent (%) Visual Control VERHE 34DAAA ([5]; 10 g ae/ha) | Percent (%) Visual Control VERHE 34DAAA ([5]; 20 g ae/ha) | Percent (%) Visual Control PAPRH 85DAAA ([6]; 5 g ae/ha) | Percent (%) Visual Control PAPRH 85DAAA ([6]; 10 g ae/ha) | Percent (%) Visual Control PAPRH 85DAAA ([6]; 20 g ae/ha) | Percent (%) Visual Control CENCY 85DAAA ([7]; 5 g ae/ha) | Percent (%) Visual Control CENCY 85DAAA ([7]; 10 g ae/ha) | Percent (%) Visual Control CENCY 85DAAA ([7]; 20 g ae/ha) | Percent (%) Visual Control STEME 51DAAA ([8]; 10 g ae/ha) | Percent (%) Visual Control STEME 51DAAA ([8]; 20 g ae/ha) | further results |
| --- | --- | --- | --- | --- | --- | --- | --- | --- | --- | --- | --- | --- | --- | --- | --- | --- | --- | --- | --- | --- | --- |
| C#CCOC(=O)c1nc(-c2ccc3cc[nH]c3c2F)c(F)c(N)c1Cl [Compound 5, prop-2-yn-1-yl 4-amino-3-chloro-5-fluoro-6-(7-fluoro-1H-indol-6-yl)picolinate] | 95% | 100% | 100% | 83.3% | 54.2% | 68.9% | 66.7% | 78.3% | 90.7% | 60% | 77% | 85% | 92.5% | 97.3% | 98.8% | 65% | 87.5% | 95% | 66.3% | 83.3% | Percent (%) Visual Control POLCO 51DAAA ([9]; 10 g ae/ha): 76.3%; Percent (%) Visual Control POLCO 51DAAA ([9]; 20 g ae/ha): 91%; Percent (%) Visual Control CHEAL 51DAAA ([10]; 10 g ae/ha): 98%; Percent (%) Visual Control CHEAL 51DAAA ([10]; 20 g ae/ha): 98%; Percent (%) Visual Control PAPRH 68DAAA ([11]; 5 g ae/ha): 58.3%; Percent (%) Visual Control PAPRH 68DAAA ([11]; 10 g ae/ha): 72.7%; Percent (%) Visual Control PAPRH 68DAAA ([11]; 20 g ae/ha): 79.3%; Percent (%) Visual Control SINAR 48DAAA ([12]; 5 g ae/ha): 85%; Percent (%) Visual Control SINAR 48DAAA ([12]; 10 g ae/ha): 94.8%; Percent (%) Visual Control SINAR 48DAAA ([12]; 20 g ae/ha): 95% |
| Nc1c(F)c(-c2ccc3cc[nH]c3c2F)nc(C(=O)OCc2ccccc2)c1Cl [Compound 7, benzyl 4-amino-3-chloro-5-fluoro-6-(7-fluoro-1H-indol-6-yl)picolinate, reference compound] | 85% | 100% | 99.3% | 99.3% | 57% | 50.5% | 59.3% | 68.3% | 80.3% | 51.7% | 58.3% | 79.3% | 66.3% | 78.8% | 80% | 32.5% | 53.8% | 62.5% | 73.3% | 80.8% | Percent (%) Visual Control STEME 51DAAA ([8]; 40 g ae/ha): 83.3%; Percent (%) Visual Control POLCO 51DAAA ([9]; 10 g ae/ha): 79%; Percent (%) Visual Control POLCO 51DAAA ([9]; 20 g ae/ha): 92.8%; Percent (%) Visual Control POLCO 51DAAA ([9]; 40 g ae/ha): 96.8%; Percent (%) Visual Control CHEAL 51DAAA ([10]; 10 g ae/ha): 94.8%; Percent (%) Visual Control CHEAL 51DAAA ([10]; 20 g ae/ha): 98%; Percent (%) Visual Control CHEAL 51DAAA ([10]; 40 g ae/ha): 98%; Percent (%) Visual Control PAPRH 68DAAA ([11]; 5 g ae/ha): 45%; Percent (%) Visual Control PAPRH 68DAAA ([11]; 10 g ae/ha): 60%; Percent (%) Visual Control PAPRH 68DAAA ([11]; 20 g ae/ha): 74.3%; Percent (%) Visual Control SINAR 48DAAA ([12]; 5 g ae/ha): 73.3%; Percent (%) Visual Control SINAR 48DAAA ([12]; 10 g ae/ha): 80.7%; Percent (%) Visual Control SINAR 48DAAA ([12]; 20 g ae/ha): 89.3% |
| N#CCOC(=O)c1nc(-c2ccc3cc[nH]c3c2F)c(F)c(N)c1Cl [Compound 6, cyanomethyl 4-amino-3-chloro-5-fluoro-6-(7-fluoro-1H-indol-6-yl)picolinate] | 100% | 100% | 100% | 98.3% | 57% | 64% | 68.7% | 81% | 90% | 55% | 77.7% | 86% | 94.5% | 97.3% | 99.8% | 60% | 92.5% | 97% | 83.8% | 75.8% | Percent (%) Visual Control STEME 51DAAA ([8]; 40 g ae/ha): 90%; Percent (%) Visual Control POLCO 51DAAA ([9]; 10 g ae/ha): 90.3%; Percent (%) Visual Control POLCO 51DAAA ([9]; 20 g ae/ha): 84.5%; Percent (%) Visual Control POLCO 51DAAA ([9]; 40 g ae/ha): 87%; Percent (%) Visual Control CHEAL 51DAAA ([10]; 10 g ae/ha): 96.8%; Percent (%) Visual Control CHEAL 51DAAA ([10]; 20 g ae/ha): 98%; Percent (%) Visual Control CHEAL 51DAAA ([10]; 40 g ae/ha): 98%; Percent (%) Visual Control PAPRH 68DAAA ([11]; 5 g ae/ha): 55%; Percent (%) Visual Control PAPRH 68DAAA ([11]; 10 g ae/ha): 69.3%; Percent (%) Visual Control PAPRH 68DAAA ([11]; 20 g ae/ha): 85.3%; Percent (%) Visual Control SINAR 48DAAA ([12]; 5 g ae/ha): 82.7%; Percent (%) Visual Control SINAR 48DAAA ([12]; 10 g ae/ha): 95%; Percent (%) Visual Control SINAR 48DAAA ([12]; 20 g ae/ha): 95.2% |
